Among the data in PubChem BioAssay (NCI) are GI50 and TGI values, retold here.

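How tested: cells in 96-well plates exposed to compound for 48 hours at five concentrations. Here, GI50 denotes the concentration required for 50% inhibition of growth. At the TGI there is no net growth.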 Bounds are passed on as bounds.

Test systems include COLO 205 colon; HL-60(TB) leukemia; M14 melanoma; NCI-H226 lung; OVCAR-5 ovarian; OVCAR-8 ovarian; SF-539 CNS; SN12C renal; T-47D breast; UO-31 renal.
What all share (assay): NCI-60 cell line screen, 48 h

As for `Cc1[nH]nc(C(F)(F)F)c1Cc1sc2c(c1C(=O)N1C[C@](C)(O)CO1)c(=O)n(C)c(=O)n2C(C)C`, the GI50 in the assay on COLO 205 colon, in the assay with HL-60(TB) leukemia, with M14 melanoma, with NCI-H226 lung, in the assay with OVCAR-5 ovarian and in the assay on OVCAR-8 ovarian was over 100 µM throughout. The GI50 in the assay on SF-539 CNS, in the assay on SN12C renal, with T-47D breast and with UO-31 renal was over 100 µM each time. The TGI in the assay on COLO 205 colon, in the assay on HL-60(TB) leukemia, in the assay with M14 melanoma, with NCI-H226 lung, with OVCAR-5 ovarian and with OVCAR-8 ovarian was over 100 µM each time. In addition, the TGI in the assay with SF-539 CNS, in the assay on SN12C renal, in the assay on T-47D breast and in the assay on UO-31 renal was over 100 µM in each case.

As to `Nc1nc(-c2ccc3c(c2)/C(=C\c2cc(Br)c(O)c(Br)c2)C(=O)N3)cs1`, the GI50 in the assay with COLO 205 colon is 15.1 µM; with HL-60(TB) leukemia, 8.91 µM; with M14 melanoma, 5.02 µM; with NCI-H226 lung, over 25 µM; in the assay with OVCAR-5 ovarian it was over 25 µM; in the assay with OVCAR-8 ovarian, over 25 µM. Besides, the GI50 with SF-539 CNS was 11.9 µM; in the assay with SN12C renal, over 25 µM; in the assay with T-47D breast, 15.1 µM; in the assay on UO-31 renal, 19.1 µM. Besides, the TGI with COLO 205 colon is over 25 µM; in the assay with HL-60(TB) leukemia, over 22.6 µM; with M14 melanoma, 11.8 µM; in the assay on NCI-H226 lung it was over 25 µM; in the assay on OVCAR-5 ovarian, over 25 µM; in the assay on OVCAR-8 ovarian, over 25 µM. The TGI with SF-539 CNS, in the assay on SN12C renal, in the assay with T-47D breast and in the assay with UO-31 renal was over 25 µM each time.

For the compound `O=C(Nc1ccc(Cl)c(Cl)c1)c1ccc(NC2=C(Cl)C(=O)N(Cc3ccccc3)C2=O)cc1`, the GI50 in the assay on COLO 205 colon is 20 µM; in the assay with HL-60(TB) leukemia, 2.82 µM; in the assay on M14 melanoma it was 17.1 µM; in the assay on NCI-H226 lung, 7.33 µM; in the assay with OVCAR-5 ovarian, 2.95 µM; in the assay with OVCAR-8 ovarian, 2.6 µM. The GI50 with SF-539 CNS was 16 µM; in the assay on SN12C renal it was 10.9 µM; in the assay on T-47D breast it was 31.6 µM; in the assay with UO-31 renal, 13.1 µM. For the same compound, the TGI was determined as 66.6 µM with COLO 205 colon; 7.68 µM in the assay on HL-60(TB) leukemia; 32.9 µM in the assay with M14 melanoma; 20.8 µM in the assay with NCI-H226 lung; 8.91 µM with OVCAR-5 ovarian; 4.41 µM in the assay on OVCAR-8 ovarian. Besides, the TGI in the assay on SF-539 CNS was 30.1 µM; in the assay with SN12C renal, 25.9 µM; in the assay on T-47D breast, 92 µM; in the assay on UO-31 renal it was 25.8 µM.

In the case of `CCN1CCN(c2ccc(NC(=O)Nc3nc4ccc(-c5ccccc5OC)cc4s3)cc2)CC1`, the GI50 was 1.97 µM in the assay with COLO 205 colon; 1.73 µM with HL-60(TB) leukemia; 1.62 µM in the assay on M14 melanoma; 2.09 µM in the assay with NCI-H226 lung; 1.8 µM in the assay on OVCAR-5 ovarian; 1.99 µM with OVCAR-8 ovarian. For the same compound, the GI50 was 1.6 µM in the assay on SF-539 CNS, 1.77 µM in the assay with SN12C renal, 1.58 µM in the assay with T-47D breast and 1.52 µM in the assay on UO-31 renal. The TGI was 3.85 µM in the assay with COLO 205 colon; 3.58 µM in the assay on HL-60(TB) leukemia; 3.03 µM in the assay on M14 melanoma; 4.52 µM in the assay with NCI-H226 lung; 3.37 µM in the assay on OVCAR-5 ovarian; 3.66 µM in the assay with OVCAR-8 ovarian. Besides, the TGI in the assay with SF-539 CNS was 3.03 µM; in the assay with SN12C renal it was 3.37 µM; in the assay with T-47D breast, 3.61 µM; in the assay with UO-31 renal, 2.92 µM.

On to `Oc1c(C(c2ccc(F)cc2)N2CCCCC2)ccc2cncnc12` (centres undefined), for which the GI50 in the assay with COLO 205 colon is 3.3 µM; in the assay with HL-60(TB) leukemia, 1.14 µM; with M14 melanoma, 0.746 µM; in the assay on NCI-H226 lung, 1.19 µM; with OVCAR-5 ovarian it was 1.28 µM; with OVCAR-8 ovarian, 0.453 µM. The GI50 in the assay with SF-539 CNS was 0.388 µM; with SN12C renal it was 0.396 µM; with T-47D breast it was 0.612 µM; with UO-31 renal it was 0.834 µM. The TGI in the assay on COLO 205 colon was over 100 µM; with HL-60(TB) leukemia, 6.22 µM; in the assay with M14 melanoma, over 75.2 µM; with NCI-H226 lung, 19.4 µM; in the assay with OVCAR-5 ovarian, over 100 µM; in the assay on OVCAR-8 ovarian it was over 100 µM. The TGI with SF-539 CNS was over 81.2 µM; with SN12C renal it was over 100 µM; with T-47D breast, 97 µM; in the assay with UO-31 renal it was 6.62 µM.

As for `Cc1ccsc1C(NC(=O)c1ccccc1)c1cc(Cl)c2cccnc2c1O` (centres undefined), the GI50 was 0.318 µM in the assay with COLO 205 colon; 0.808 µM in the assay on HL-60(TB) leukemia; 0.892 µM with M14 melanoma; 1.4 µM with NCI-H226 lung; 2.67 µM with OVCAR-5 ovarian; 0.405 µM in the assay with OVCAR-8 ovarian. Moreover, the GI50 in the assay with SF-539 CNS was 0.479 µM; with SN12C renal it was 0.971 µM; in the assay on T-47D breast it was 0.426 µM; in the assay with UO-31 renal, 0.334 µM. Also, the TGI is 10.6 µM in the assay on COLO 205 colon; 5.07 µM in the assay on HL-60(TB) leukemia; 9.43 µM with M14 melanoma; 7.35 µM with NCI-H226 lung; 42 µM with OVCAR-5 ovarian; 24 µM in the assay with OVCAR-8 ovarian. The TGI in the assay with SF-539 CNS was determined as 10.4 µM; with SN12C renal it was 14.7 µM; with T-47D breast, 7.3 µM; in the assay on UO-31 renal it was 2.51 µM.

`Cc1cc(I)cc(CN(C)CCCN2CCC(C)CC2)c1O`: the GI50 in the assay on COLO 205 colon is 13.4 µM; in the assay on HL-60(TB) leukemia, 12.5 µM; in the assay on M14 melanoma, 13.7 µM; in the assay with NCI-H226 lung, 17.2 µM; with OVCAR-5 ovarian, 15.6 µM; in the assay with OVCAR-8 ovarian it was 16.7 µM. For the same compound, the GI50 is 14 µM with SF-539 CNS, 24 µM in the assay with SN12C renal, 15.8 µM in the assay with T-47D breast and 11.4 µM in the assay with UO-31 renal. Besides, the TGI in the assay on COLO 205 colon worked out at 28 µM; with HL-60(TB) leukemia it was 31.6 µM; in the assay with M14 melanoma, 26.8 µM; in the assay on NCI-H226 lung, 39.1 µM; with OVCAR-5 ovarian, 34.4 µM; with OVCAR-8 ovarian, 33.5 µM. In addition, the TGI in the assay on SF-539 CNS was 27.5 µM; in the assay on SN12C renal, 93.4 µM; in the assay with T-47D breast, 40.7 µM; in the assay with UO-31 renal it was 24.8 µM.

On to `O=C(Nc1ccc(Br)c2ccccc12)c1ccc2ccccc2c1O`, for which the TGI with COLO 205 colon stood at 5.49 µM; in the assay on HL-60(TB) leukemia, 88.8 µM; in the assay with M14 melanoma, 18.3 µM; in the assay with NCI-H226 lung it was 6.39 µM; with OVCAR-5 ovarian, 12.7 µM; in the assay on OVCAR-8 ovarian it was 19.2 µM. Further, the TGI is 24.9 µM in the assay with SF-539 CNS, 24.9 µM in the assay on SN12C renal, 14.5 µM with T-47D breast and 12.9 µM in the assay with UO-31 renal.

Turning to `COc1ccc(C(=O)/C=C/c2ccc(OCc3cccc(C(F)(F)F)c3)c(OC)c2)cc1OC`, the GI50 in the assay on COLO 205 colon is 61.6 µM; with HL-60(TB) leukemia, 24.8 µM; in the assay on M14 melanoma, 70.9 µM; in the assay on NCI-H226 lung, 83.1 µM; in the assay on OVCAR-5 ovarian, 292 µM; in the assay on OVCAR-8 ovarian, 48.8 µM. For the same compound, the GI50 with SF-539 CNS is 65.3 µM; in the assay on SN12C renal, 74.4 µM; in the assay with T-47D breast, 32.1 µM; with UO-31 renal it was 47.3 µM. Further, the TGI was over 1000 µM in the assay on COLO 205 colon; 70.9 µM in the assay with HL-60(TB) leukemia; over 1000 µM in the assay with M14 melanoma; over 1000 µM in the assay with NCI-H226 lung; over 1000 µM in the assay with OVCAR-5 ovarian; over 1000 µM in the assay on OVCAR-8 ovarian. Further, the TGI in the assay on SF-539 CNS, in the assay on SN12C renal, in the assay on T-47D breast and in the assay with UO-31 renal was over 1000 µM throughout.

Take `COc1cccc(N2CC(O)=C(c3nc4ccccc4s3)C2=N)c1`: the GI50 in the assay on COLO 205 colon was 0.472 µM; with HL-60(TB) leukemia, 0.26 µM; in the assay on M14 melanoma, 0.35 µM; with NCI-H226 lung it was 7.21 µM; with OVCAR-8 ovarian, 0.838 µM; in the assay with SF-539 CNS it was 0.451 µM. Also, the GI50 in the assay on SN12C renal is 0.379 µM; in the assay with T-47D breast, 46.5 µM; in the assay on UO-31 renal, 0.717 µM. Besides, the TGI is over 100 µM in the assay on COLO 205 colon; over 100 µM with HL-60(TB) leukemia; 48.8 µM in the assay on M14 melanoma; over 100 µM in the assay with NCI-H226 lung; over 95 µM in the assay on OVCAR-5 ovarian; 65.9 µM with OVCAR-8 ovarian. Also, the TGI with SF-539 CNS is 26.6 µM; in the assay on SN12C renal, 5.63 µM; in the assay on T-47D breast it was over 100 µM; in the assay with UO-31 renal it was over 70.3 µM.

Turning to `CC1=CC(C)=N/C(=N/S(=O)(=O)c2cc(C)c(Cl)cc2SCc2ccccc2)NN1`, the GI50 in the assay on COLO 205 colon, in the assay with HL-60(TB) leukemia, in the assay on M14 melanoma, in the assay with NCI-H226 lung, with OVCAR-5 ovarian and in the assay with OVCAR-8 ovarian was over 100 µM in each case. Besides, the GI50 is 81.1 µM with SF-539 CNS, over 100 µM with SN12C renal, over 100 µM with T-47D breast and over 100 µM with UO-31 renal. In addition, the TGI in the assay with COLO 205 colon, with HL-60(TB) leukemia, with M14 melanoma, in the assay on NCI-H226 lung, in the assay with OVCAR-5 ovarian and with OVCAR-8 ovarian was over 100 µM in each case. Also, the TGI in the assay on SF-539 CNS, in the assay with SN12C renal, in the assay on T-47D breast and in the assay with UO-31 renal was over 100 µM throughout.
